According to ChEMBL document CHEMBL1130868, “Synthesis of betulinic acid derivatives with activity against human melanoma” (1998):
Values after ≈ are worked out from the molar mass of the structure shown.

What was measured:
SK-MEL-2 = assay: Cytotoxicity against cultured human melanoma (MEL-2) cell line.; type: functional; conditions: read-out: ED50 (the source's name)
KB = assay: Cytotoxicity against human epidermoid carcinoma of the mouth (KB) cell line.; type: functional; conditions: read-out: ED50 (the source's name)

| Compound | EC50 (SK-MEL-2) [µg/mL] | EC50 (KB) [µg/mL] |
| --- | --- | --- |
| C=C(C)[C@@H]1CC[C@]2(CO)CC[C@]3(C)[C@H](CC[C@@H]4[C@@]5(C)CC[C@H](O)C(C)(C)[C@@H]5CC[C@]43C)[C@@H]12 [BETULIN] | > 20 | > 20 |
| C=C(C)[C@@H]1CC[C@]2(C(=O)OC)CC[C@]3(C)[C@H](CC[C@@H]4[C@@]5(C)CC[C@H](O)C(C)(C)[C@@H]5CC[C@]43C)[C@@H]12 [METHYL BETULINATE] | 8.3 (≈ 17.6 µM) | 11.8 (≈ 25.1 µM) |
| CC(C)[C@@H]1CC[C@]2(C(=O)O)CC[C@]3(C)[C@H](CC[C@@H]4[C@@]5(C)CC/C(=N\O)C(C)(C)[C@@H]5CC[C@]43C)[C@@H]12 | 2.2 (≈ 4.66 µM) | > 20 |
| CC(C)[C@@H]1CC[C@]2(C(=O)O)CC[C@]3(C)[C@H](CC[C@@H]4[C@@]5(C)CC[C@H](O)C(C)(C)[C@@H]5CC[C@]43C)[C@@H]12 [DIHYDROBETULINIC ACID] | 5.8 (≈ 12.6 µM) | > 20 |
| C=C(C)[C@@H]1CC[C@]2(C(=O)O)CC[C@]3(C)[C@H](CC[C@@H]4[C@@]5(C)CC[C@H](N)C(C)(C)[C@@H]5CC[C@]43C)[C@@H]12 | 1.3 (≈ 2.85 µM) | – |
| C=C(C)[C@@H]1CC[C@]2(C)CC[C@]3(C)[C@H](CC[C@@H]4[C@@]5(C)CC[C@H](OC(=O)c6ccccc6)C(C)(C)[C@@H]5CC[C@]43C)[C@@H]12 | > 20 | > 20 |
| C=C(C)[C@@H]1CC[C@]2(C(=O)O)CC[C@]3(C)[C@H](CC[C@@H]4[C@@]5(C)CCC(=O)C(C)(C)[C@@H]5CC[C@]43C)[C@@H]12 [BETUNOLIC ACID] | 0.9 (≈ 1.98 µM) | 2.5 (≈ 5.5 µM) |
| CC(C)[C@@H]1CC[C@]2(C(=O)O)CC[C@]3(C)[C@H](CC[C@@H]4[C@@]5(C)CCC(=O)C(C)(C)[C@@H]5CC[C@]43C)[C@@H]12 [DIHYDROBETULONIC ACID] | 0.7 (≈ 1.53 µM) | > 20 |
| C=C(C)[C@@H]1CC[C@]2(C(=O)O)CC[C@]3(C)[C@H](CC[C@@H]4[C@@]5(C)CC/C(=N\OC)C(C)(C)[C@@H]5CC[C@]43C)[C@@H]12 | 8.3 (≈ 17.2 µM) | 4.3 (≈ 8.89 µM) |
| C=C(C)[C@@H]1CC[C@]2(C)CC[C@]3(C)[C@H](CC[C@@H]4[C@@]5(C)CC[C@H](O)C(C)(C)[C@@H]5CC[C@]43C)[C@@H]12 [LUPEOL] | 17.6 (≈ 41.2 µM) | > 20 |
| C=C(C)[C@@H]1CC[C@]2(C=O)CC[C@]3(C)[C@H](CC[C@@H]4[C@@]5(C)CCC(=O)C(C)(C)[C@@H]5CC[C@]43C)[C@@H]12 [BETULONAL] | 7.4 (≈ 16.9 µM) | 12.9 (≈ 29.4 µM) |
| C=C(C)[C@@H]1CC[C@]2(/C=N/OC)CC[C@]3(C)[C@H](CC[C@@H]4[C@@]5(C)CC/C(=N\OC)C(C)(C)[C@@H]5CC[C@]43C)[C@@H]12 | > 20 | 20 (≈ 40.3 µM) |
| C=C(C)[C@@H]1CC[C@]2(/C=N/O)CC[C@]3(C)[C@H](CC[C@@H]4[C@@]5(C)CC/C(=N\O)C(C)(C)[C@@H]5CC[C@]43C)[C@@H]12 [BETULIN-3,28-DIOXIME] | 2.2 (≈ 4.69 µM) | 3.3 (≈ 7.04 µM) |
| C=C(C)[C@@H]1CC[C@]2(C(=O)O)CC[C@]3(C)[C@H](CC[C@@H]4[C@@]5(C)CC[C@H](O)C(C)(C)[C@@H]5CC[C@]43C)[C@@H]12 [BETULINIC ACID] | 1.2 (≈ 2.63 µM) | > 20 |
| CO/N=C1\CC[C@]2(C)[C@H]3CC[C@@H]4[C@H]5[C@H](C(C)C)CC[C@]5(C(=O)O)CC[C@@]4(C)[C@]3(C)CC[C@H]2C1(C)C | > 20 | > 20 |
